ChEMBL document CHEMBL1201862, “PubChem BioAssay data set” (2004)
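Values below derive from 48-hour exposures of cells grown in 96-well plates, with endpoints linearly interpolated between the two concentrations bracketing the appropriate inhibition level. GI50 is the concentration that inhibits growth by half.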 Calls of active or inactive are those of the source. No stated cut-off is given here; in the data, active = GI50 up to about 1.1 µM and inactive = higher.

Assays:
Assay in all cases: growth of human tumour cells (NCI), 48 h
LOX IMVI = tested on: LOX IMVI
UACC-257 = tested on: UACC-257
SK-MEL-28 = tested on: SK-MEL-28
HT-29 = tested on: HT-29
HCT-116 = tested on: HCT-116
HCC 2998 = tested on: HCC 2998
NCI/ADR-RES = tested on: NCI/ADR-RES
HL-60 = tested on: HL-60
M14 = tested on: M14
786-0 = tested on: 786-0
NCI-H522 = tested on: NCI-H522
OVCAR-3 = tested on: OVCAR-3
SNB-19 = tested on: SNB-19
MDA-MB-231 = tested on: MDA-MB-231
A498 = tested on: A498
TK-10 = tested on: TK-10
SK-MEL-2 = tested on: SK-MEL-2
SF-295 = tested on: SF-295
Malme-3M = tested on: Malme-3M
BT-549 = tested on: BT-549

SMILES	GI50 (LOX IMVI)	GI50 (UACC-257)	GI50 (SK-MEL-28)	GI50 (HT-29)	GI50 (HCT-116)	GI50 (HCC 2998)	GI50 (NCI/ADR-RES)	GI50 (HL-60)	GI50 (M14)	GI50 (786-0)	GI50 (NCI-H522)	GI50 (OVCAR-3)	GI50 (SNB-19)	GI50 (MDA-MB-231)	GI50 (A498)	GI50 (TK-10)	GI50 (SK-MEL-2)	GI50 (SF-295)	GI50 (Malme-3M)	GI50 (BT-549)
O=C(O)c1cc(C(=O)O)nc(C(=O)O)c1	> 100 µM (inactive)	> 100 µM (inactive)	> 100 µM (inactive)	> 100 µM (inactive)	> 100 µM (inactive)	> 100 µM (inactive)	> 100 µM (inactive)	> 100 µM (inactive)	> 100 µM (inactive)	> 100 µM (inactive)	> 100 µM (inactive)	> 100 µM (inactive)	> 100 µM (inactive)	> 100 µM (inactive)	> 100 µM (inactive)	> 100 µM (inactive)	> 100 µM (inactive)	> 100 µM (inactive)	> 100 µM (inactive)	> 100 µM (inactive)
Nc1nc2c(C(=O)NCc3cccs3)nnn2c2cccc(Cl)c12	> 100 µM (inactive)	> 100 µM (inactive)	92.3 µM (inactive)	> 100 µM (inactive)	> 100 µM (inactive)	30.5 µM (inactive)	> 100 µM (inactive)	> 100 µM (inactive)	> 100 µM (inactive)	> 100 µM (inactive)	> 100 µM (inactive)	> 100 µM (inactive)	> 100 µM (inactive)	60.1 µM (inactive)	> 100 µM (inactive)	> 100 µM (inactive)	> 100 µM (inactive)	> 100 µM (inactive)	> 100 µM (inactive)	> 100 µM (inactive)
CC[P+](c1ccccc1)(N(C)C)N(C)C	> 100 µM (inactive)	> 100 µM (inactive)	> 100 µM (inactive)	> 100 µM (inactive)	> 100 µM (inactive)	> 100 µM (inactive)	> 100 µM (inactive)	> 100 µM (inactive)	> 100 µM (inactive)	> 100 µM (inactive)	89.5 µM (inactive)	> 100 µM (inactive)	> 100 µM (inactive)	> 100 µM (inactive)	> 100 µM (inactive)	> 100 µM (inactive)	> 100 µM (inactive)	> 100 µM (inactive)	> 100 µM (inactive)	> 100 µM (inactive)
CC(C)C1OC(/C=C/c2ccccc2)OCC1(C)C (stereo not given)	18.9 µM (inactive)	24.8 µM (inactive)	53.3 µM (inactive)	27.7 µM (inactive)	25.4 µM (inactive)	19.6 µM (inactive)	41.6 µM (inactive)	19.9 µM (inactive)	36.2 µM (inactive)	37.1 µM (inactive)	13.8 µM (inactive)	20.4 µM (inactive)	41.4 µM (inactive)	36.4 µM (inactive)	24 µM (inactive)	35.1 µM (inactive)	18.2 µM (inactive)	31 µM (inactive)	0.91 µM (active)	36.1 µM (inactive)
COc1ccc(/N=C(C)/C(C)=N/c2ccc(OC)cc2)cc1	5.02 µM (inactive)	56.9 µM (inactive)	> 100 µM (inactive)	48.6 µM (inactive)	72.6 µM (inactive)	20.2 µM (inactive)	62.8 µM (inactive)	52.2 µM (inactive)	9.91 µM (inactive)	> 100 µM (inactive)	> 100 µM (inactive)	> 100 µM (inactive)	> 100 µM (inactive)	> 100 µM (inactive)	> 100 µM (inactive)	> 100 µM (inactive)	> 100 µM (inactive)	17 µM (inactive)	> 100 µM (inactive)	3.78 µM (inactive)
O=C(N/N=C/c1c(-c2ccccc2)no[n+]1[O-])N1CCOCC1	> 100 µM (inactive)	> 100 µM (inactive)	> 100 µM (inactive)	> 100 µM (inactive)	> 100 µM (inactive)	> 100 µM (inactive)	> 100 µM (inactive)	23.3 µM (inactive)	> 100 µM (inactive)	> 100 µM (inactive)	> 100 µM (inactive)	> 100 µM (inactive)	> 100 µM (inactive)	> 100 µM (inactive)	> 100 µM (inactive)	> 100 µM (inactive)	> 100 µM (inactive)	> 100 µM (inactive)	> 100 µM (inactive)	> 100 µM (inactive)
N#Cc1ccc(Oc2nc3ccccc3nc2C(=O)O)cc1	> 100 µM (inactive)	> 100 µM (inactive)	> 100 µM (inactive)	> 100 µM (inactive)	> 100 µM (inactive)	> 100 µM (inactive)	> 100 µM (inactive)	> 100 µM (inactive)	> 100 µM (inactive)	> 100 µM (inactive)	> 100 µM (inactive)	> 100 µM (inactive)	> 100 µM (inactive)	> 100 µM (inactive)	> 100 µM (inactive)	> 100 µM (inactive)	> 100 µM (inactive)	> 100 µM (inactive)	> 100 µM (inactive)	> 100 µM (inactive)
Clc1ncnc2c1nc(C#Cc1ccccc1)n2C1CCCCO1 (stereo not given)	2.02 µM (inactive)	2.61 µM (inactive)	2.21 µM (inactive)	1.91 µM (inactive)	1.82 µM (inactive)	2.1 µM (inactive)	2.75 µM (inactive)	2.59 µM (inactive)	2.14 µM (inactive)	1.42 µM (inactive)	1.81 µM (inactive)	1.37 µM (inactive)	2.53 µM (inactive)	3.95 µM (inactive)	2.63 µM (inactive)	2.63 µM (inactive)	2.47 µM (inactive)	4.47 µM (inactive)	1.95 µM (inactive)	1.9 µM (inactive)
CCC(C)C(=O)OCC(=O)c1ccc(-c2ccccc2)cc1 (stereo not given)	34.7 µM (inactive)	27.2 µM (inactive)	72.9 µM (inactive)	34.6 µM (inactive)	68.7 µM (inactive)	> 100 µM (inactive)	76.9 µM (inactive)	> 100 µM (inactive)	89.7 µM (inactive)	> 100 µM (inactive)	22.8 µM (inactive)	37.8 µM (inactive)	80.7 µM (inactive)	78.9 µM (inactive)	32.7 µM (inactive)	66.4 µM (inactive)	41.6 µM (inactive)	59.8 µM (inactive)	29.1 µM (inactive)	45.4 µM (inactive)
Cn1c2ccccc2c(=O)c2c(O)cc3c(c21)C=CC1(CCCC1)O3	> 100 µM (inactive)	> 100 µM (inactive)	> 100 µM (inactive)	2.67 µM (inactive)	> 100 µM (inactive)	> 100 µM (inactive)	> 100 µM (inactive)	> 100 µM (inactive)	> 100 µM (inactive)	76.4 µM (inactive)	> 100 µM (inactive)	> 100 µM (inactive)	> 100 µM (inactive)	> 100 µM (inactive)	> 100 µM (inactive)	> 100 µM (inactive)	> 100 µM (inactive)	19 µM (inactive)	> 100 µM (inactive)	> 100 µM (inactive)
COc1cc2c(c(OC)c1OC)C(=O)c1c(O)cc(C)c(OC)c1C2=O	86.3 µM (inactive)	54.6 µM (inactive)	37.2 µM (inactive)	> 100 µM (inactive)	99.1 µM (inactive)	> 100 µM (inactive)	57.1 µM (inactive)	> 100 µM (inactive)	> 100 µM (inactive)	78.3 µM (inactive)	57.1 µM (inactive)	> 100 µM (inactive)	77.1 µM (inactive)	55 µM (inactive)	> 100 µM (inactive)	27.2 µM (inactive)	88.1 µM (inactive)	82.6 µM (inactive)	> 100 µM (inactive)	> 100 µM (inactive)
CSC(=S)Nc1cc(C)cc(C)n1	> 31.6 µM (inactive)	> 31.6 µM (inactive)	> 31.6 µM (inactive)	> 31.6 µM (inactive)	> 10 µM (inactive)	> 31.6 µM (inactive)	> 31.6 µM (inactive)	> 31.6 µM (inactive)	> 31.6 µM (inactive)	22.4 µM (inactive)	18.7 µM (inactive)	> 31.6 µM (inactive)	> 31.6 µM (inactive)	> 100 µM (inactive)	> 100 µM (inactive)	> 31.6 µM (inactive)	> 31.6 µM (inactive)	> 31.6 µM (inactive)	> 31.6 µM (inactive)	> 100 µM (inactive)
Cc1cc(=O)n2c3c(c4c(cc13)c(CN(C)C)cc(=O)n4C)OC2	13.2 µM (inactive)	21.9 µM (inactive)	31.8 µM (inactive)	8.13 µM (inactive)	5.2 µM (inactive)	6.93 µM (inactive)	15 µM (inactive)	22.2 µM (inactive)	15.6 µM (inactive)	15.9 µM (inactive)	0.9 µM (active)	18.6 µM (inactive)	15.8 µM (inactive)	33.3 µM (inactive)	38.2 µM (inactive)	19.6 µM (inactive)	20.3 µM (inactive)	16.9 µM (inactive)	12.4 µM (inactive)	22 µM (inactive)
CN(C)CCCc1c[nH]c2ccccc12	> 100 µM (inactive)	> 100 µM (inactive)	> 100 µM (inactive)	> 100 µM (inactive)	> 100 µM (inactive)	> 100 µM (inactive)	> 100 µM (inactive)	> 100 µM (inactive)	> 100 µM (inactive)	> 100 µM (inactive)	> 100 µM (inactive)	> 100 µM (inactive)	> 100 µM (inactive)	> 100 µM (inactive)	> 100 µM (inactive)	> 100 µM (inactive)	> 100 µM (inactive)	> 100 µM (inactive)	> 100 µM (inactive)	> 100 µM (inactive)
